The text below walks through data of PMC6940745 (International Journal of Molecular Sciences, 2019).

One experiment has as its target human ETBR (Homo sapiens, UniProt P24530). Kind of experiment: ETBR activation, Aequorin assay. To be noted: eight concentrations, 0.01 to 100,000 nM. Format: cell-based. Here is the method:
Melanin-concentrating hormone receptor (MCHR), endothelin-1 receptor (ETBR), and serotonin-receptor (5-HT2AR) assays were performed by means of Aequorin assays. Recombinant cells co-expressing human MCH1R, MCH2R, ETBR, or 5-HT2AR and mitochondrial apoaequorin (MCH1R, MCH2R and 5-HT2AR cells also co-express recombinant Gα16 protein) (EuroscreenFast, Gosselies, Belgium), grown 18 h prior to the test in media without antibiotics, were detached by gentle flushing with PBS-EDTA (5 mM EDTA), recovered by centrifugation, and resuspended in assay buffer (DMEM/HAM’s F12 with HEPES + 0.1% BSA protease free). Cells were incubated under agitation at room temperature for at least 4 h with Coelenterazine h (Promega, X300X, 0.5 µM final concentration). Dose response curves with the reference compounds were performed before testing the compounds. For agonist testing, 50 µL of cell suspension was injected on 50 µL of test compound or reference agonist diluted in assay buffer and plated in a 96-well plate. The resulting emission of light was recorded using the Hamamatsu Functional Drug Screening System 6000 (FDSS 6000). […] Agonist activity of test compound was expressed as a percentage of the activity of the reference agonist at its EC100 concentration.

In another experiment the test system is Nrf2 (phospho S40). The experiment in a line: Nrf2 serine 40 phosphorylation in skin explants after UVA-irradiation. It counts as cell-based, human. Particulars: p < 0.05 vs UVA-irradiated vehicle control. Here is the method:
On an abdominoplasty coming from a person with Fitzpatrick phototype II, skin explants of an average diameter of 11 mm were prepared after obtaining written informed consent. The explants were kept in culture medium at 37 °C in a humid, 5% CO2 atmosphere. The peptide was applied topically and spread using a small spatula on day 0 (D0), D1, D2, and D3. […] On day 3, explants were irradiated with UVA (13.5 J/cm^2 equal to 3 minimal erythemal doses (MED)) using a Vilbert Lourmat solar simulator RMX 3W. For the UV irradiation, the explants were transferred into 1 mL of HBSS (Hank’s buffered salt solution) medium. The non-irradiated batches were kept in 1 mL of HBSS medium. After the UV exposure, all the explants were put in fresh Bio-EC’s explant medium (BEM medium). The products were applied on the explants 3 h before and just after UVA irradiation. Twenty-four hours after UVA irradiation, the tissues were harvested and processed for histology. After fixation for 24 h in buffered formalin, the samples were dehydrated and impregnated in paraffin using a Leica TP 1010 dehydration automat. The samples were embedded using a Leica EG 1160 embedding station. Sections 5 µm thick were made using a Leica RM 2125 Minot-type microtome, and the sections were mounted on Superfrost® histological glass slides (Thermo Fisher Scientific, Waltham, MA, USA). […]

For another experiment, the system named is TYRP-1. The experiment in a line: TYRP-1 protein expression in human skin ex vivo (immunohistochemistry). Format: cell-based. Particulars: topical 30, 100 and 200 µM, six days; p < 0.05. Here is the method: Following declaration of Helsinki principles (DoH-Oct2013, World Medical Association, Ferney-Voltaire, France), human skin samples were obtained from elective plastic surgery after informed consent was obtained. For the two experiments shown in Figure 2, Figure 3 and Figure 4, we had one person with an individual topology angle (ITA°) of 18, and one person with an ITA° of 39 [69]. The skin samples were cut in pieces of 8 × 3 mm and cultured up to day 6. Skin samples were cultured in an air–liquid interface in a perforated ring of stainless steel in contact with culture medium (modified Williams’ E medium). The culture medium was renewed every three days (i.e., day 0–3). Compounds were added daily in DMSO at 4 µL volume. At day 6, the skin samples were fixed in formalin, embedded in paraplast, and cut at the microtome for histochemical staining and consequent image analysis. Six skin biopsies were used for each single treatment.
Twelve skin sections from the ex vivo melanogenesis experiment above were immunoassayed with the selected antibodies (TYR, Thermo Scientific #MS-800-P0 (Thermo Scientific, Waltham, MA, USA); TYRP-1, Covance #SIG-38150 (Covance Inc., Princeton, NJ, USA), MITF, Abcam #ab80651 (Abcam plc, Cambridge, UK). The number of positive cells within the epidermis was counted and the value was normalized upon the length of the basal lamina, thus obtaining a score. […]

Where a SMILES comes first, the peptide text is derived from it. [ ]: non-standard residue; d: D form. The star is where a group is joined. Bz = O=C(c1ccccc1)*; NPr2 = CCCN(CCC)*

Sequence of human ETBR (P24530 27-442): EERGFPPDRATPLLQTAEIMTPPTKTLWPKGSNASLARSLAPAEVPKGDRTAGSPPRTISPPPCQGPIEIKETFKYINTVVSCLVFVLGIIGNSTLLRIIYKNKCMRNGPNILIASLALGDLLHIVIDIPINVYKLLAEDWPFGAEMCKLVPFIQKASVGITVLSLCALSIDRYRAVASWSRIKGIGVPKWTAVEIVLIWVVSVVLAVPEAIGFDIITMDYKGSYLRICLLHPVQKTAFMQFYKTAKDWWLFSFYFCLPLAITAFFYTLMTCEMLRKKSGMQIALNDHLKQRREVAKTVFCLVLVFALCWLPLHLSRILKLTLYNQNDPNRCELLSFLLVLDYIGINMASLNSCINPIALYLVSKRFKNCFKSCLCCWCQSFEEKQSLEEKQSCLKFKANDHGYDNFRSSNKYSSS

Usually EC50 stands for the concentration that produces a half-maximal response. A lower EC50 goes with greater potency. Molecule `CCCN(CCC)C(=O)[C@@H](Cc1c[nH]c2ccccc12)NC(=O)[C@H](CCCNC(=N)N)NC(=O)[C@@H](Cc1ccccc1)NC(=O)[C@H](Cc1c[nH]cn1)NC(=O)CNC(=O)c1ccccc1` [Peptide 4] (Bz-GH[dF]R[dW]-NPr2) returned an EC50 on human ETBR of over 100 µM. For the same molecule, the “Induction of Nrf2 phosphorylation on serine 40” value with Nrf2 (phospho S40) is reported as “up to 161%”. The “Maximal induction of TYRP-1 protein expression vs vehicle” value with TYRP-1 is 72%.
